Data as given in US20100222437A1, “C[…]-PSYCHOTROPIC CANNABINOIDS FOR THE TREATMENT OF INFLAMMATORY DISEASES” (priority 2007, published 2010).
Like-named read-outs stand apart in the source and are kept apart here.

Experiments:
[1] = test system: SW480 (Colon cancer) cells; test: Calcein-AM cytotoxicity assay, SW480; conditions: SW480, 24 h, compound alone
Description: (§1) The cytotoxic effect of the Cannabigerol (CBG) and Cannabidiol (CBD) alone or in combination was investigated by the Calcein-AM assay. Briefly, AGS, SW480 and HTC116 cells were cultivated at a density of 1.0×10^4 cells/ml in 96-well plates, 200 μl cell suspension per well and cultured in DMEM containing 10% fetal calf serum. Cells were treated with or without CBD, CBG or a combination of both compounds for 24 h, after which the wells were washed and the cells incubated with Calcein-AM (1 μM) (Molecular Probes) for 30 min. Then the fluorescence of viable cells was detected in a microtitre plate reader (TECAN Genius Pro). The intensity of fluorescence was inversely proportional to cell death induced by the compounds.

[2] = test system: AGS (gastric cancer) cells; test: Calcein-AM cytotoxicity assay, AGS; conditions: 24 h, compound alone
Description: as §1

[3] = test system: TNF-α; test: TNF-α release by LPS-stimulated human monocytes (ELISA); assay type: cell-based; conditions: for release of TNF-α in LPS-stimulated monocytes: LPS 10 ng/ml, 24 h, rank order Denbinobin, CBD, CBG
Description: The inhibitory effect of CARMA-CBG extract on TNF-α release was studied in human peripheral mononuclear phagocytic cells. Monocytes were isolated as in Example 6 and were treated with LPS (10 ng/ml), in the absence or presence of increasing concentrations of CARMA-CBG extract dissolved in DMSO for 24 h. The production of the TNFα was determined by ELISA. […] LPS-mediated activation in the absence of CARMA-CBG was arbitrarily set as 100% of TNF-α release (FIG. 6).
The production of TNF-α was determined by ELISA, on the supernatant of LPS-treated monocytes, as indicated above, in the absence or presence of either CBG, or CBD or Denbinobin, as indicated.
Monocytes from healthy human donors, were treated with LPS (10 ng/ml), in the absence or presence of either CBG, or CBD or Canflavin A or Denbinobin, combined as indicated. The production of TNF-α was determined by ELISA as indicated above.

[4] = test system: IL-1β; test: IL-1β release by LPS-stimulated human monocytes (ELISA); assay type: cell-based; conditions: for release of IL-1β (IL-1) in LPS-stimulated monocytes: LPS 10 ng/ml, 24 h, rank order Denbinobin, CBD, CBG
Description: The inhibitory effect of CARMA-CBG extract on IL-1β release was studied in human peripheral mononuclear phagocytic cells. Monocytes from healthy human donors were prepared following a standardised protocol (Ficoll gradient preparation) using a completely endotoxin-free cultivation. Using 50 ml tubes, 25 ml Ficoll were loaded with 25 ml blood of buffy coats from healthy blood donors. The gradient was established by centrifugation at 1,800 r.p.m., 20° C. for 40 min by using slow acceleration and brakes. Peripheral blood mononuclear cells in the interphase were carefully removed and re-suspended in 50 ml pre-warmed phosphate buffered saline followed by centrifugation for 10 min at 1,600 r.p.m. and 20° C. The supernatant was discarded and the pellet washed in 50 ml PBS and centrifuged as described above. The pellet was then re-suspended in 50 ml RPMI-1640 low endotoxin-medium supplemented with 10% human serum (PAA). After counting the amount of cells in a particle counter, cells were seeded in 24-well plates for ELISA and incubated at 37° C./5% CO2. The medium and the non-adherent cells (lymphocytes) were removed and fresh RPMI-1640 medium containing 1% human serum was added. The monocytes were treated with LPS (10 ng/ml), in the absence or presence of increasing concentrations of CARMA-CBG extract dissolved in DMSO for 24 h. The production of the IL-1β was determined by ELISA. […] LPS-mediated activation in the absence of CARMA-CBG was arbitrarily set as 100% of IL-1β release (FIG. 5).
Monocytes were isolated from healthy human donors as indicated above, and then treated with LPS (10 ng/ml), in the absence or presence of either CBG, or CBD or Denbinobin, as indicated, dissolved in DMSO. The production of IL-1 was determined by ELISA, and mean values from two independent experiments are shown. Full LPS-mediated activation was arbitrarily set as 100%.
Monocytes from healthy human donors, were treated with LPS (10 ng/ml), in the absence or presence of either CBG, or CBD or Canflavin A or Denbinobin, combined as indicated. The production of IL-1 was determined by ELISA, and mean values from two independent experiments are shown.

[5] = test system: NF-kB; test: cells; assay type: cell-based; conditions: for % INHIBITON OF TNF-α-INDUCED NF-κB ACTIVATION: compound alone
[6] = test system: HCT-116 (Colon cancer) cells; test: Calcein-AM cytotoxicity assay, HCT-116; conditions: HCT-116, 24 h, compound alone
Description: as §1

[7] = test system: prostaglandin E2; conditions: cited from earlier work
[8] = test system: leukaemia cell lines; conditions: cited from earlier work
[9] = test system: colon cancer cell lines; conditions: cited from earlier work
[10] = test system: HIV-1; conditions: cited from earlier work
[11] = molecular target: T1, CB1 receptors in intestine submucose neurons (Rattus norvegicus, UniProt P20272); conditions: by activating CB1 receptors; cited from earlier work
T1 construct: host or cells: intestine submucose neurons (in vivo)
T1 sequence (P20272 whole entry): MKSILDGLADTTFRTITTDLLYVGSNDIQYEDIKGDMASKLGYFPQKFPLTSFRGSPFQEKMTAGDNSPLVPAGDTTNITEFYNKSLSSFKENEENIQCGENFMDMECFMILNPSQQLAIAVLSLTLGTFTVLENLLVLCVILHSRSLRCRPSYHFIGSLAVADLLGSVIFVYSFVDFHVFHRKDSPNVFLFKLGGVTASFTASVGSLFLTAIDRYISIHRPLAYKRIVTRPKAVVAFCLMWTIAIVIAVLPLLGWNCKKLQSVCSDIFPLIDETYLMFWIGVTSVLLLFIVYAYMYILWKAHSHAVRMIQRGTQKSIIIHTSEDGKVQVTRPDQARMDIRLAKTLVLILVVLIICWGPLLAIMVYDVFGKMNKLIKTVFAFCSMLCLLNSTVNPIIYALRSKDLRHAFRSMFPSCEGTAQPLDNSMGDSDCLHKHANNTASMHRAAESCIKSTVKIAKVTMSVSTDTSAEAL

[12] = test system: intestinal inflammation; conditions: mice with induced IBD; cited from earlier work
[13] = Homo sapiens, Monocyte, compound alone, 10 μM, read-out: % INHIBITION OF LPS-INDUCED TNF-α-PRODUCTION
[14] = Homo sapiens, Monocyte, compound alone, 20 μM, read-out: % INHIBITION OF LPS-INDUCED TNF-α-PRODUCTION
[15] = Homo sapiens, Monocyte, compound alone, 20 μM, read-out: % INHIBITION OF LPS-INDUCED IL-1 PRODUCTION
[16] = Homo sapiens, Jurkat, read-out: % INHIBITON OF TNF-α-INDUCED NF-κB ACTIVATION

SMILES | cytotoxicity (cell survival, Calcein-AM) [1] | cytotoxicity (cell survival, Calcein-AM) [2] | release of TNF-α in LPS-stimulated monocytes [3] | release of IL-1β (IL-1) in LPS-stimulated monocytes [4] | cytotoxicity (cell survival, Calcein-AM) [6] | inhibition at 10 µM [3, 13] | inhibition at 20 µM [3, 14] | inhibition at 20 µM [4, 15] | inhibition at 10 µM [5, 16] | inhibition at 20 µM [5, 16] | further results
C=C(C)[C@@H]1CCC(C)=C[C@H]1c1c(O)cc(CCCCC)cc1O [CBD, Cannabidiol] | induced cytotoxicity | induced cytotoxicity | significant concentration-dependent decrease | significant concentration-dependent decrease | induced cytotoxicity |  |  |  |  |  | % INHIBITION OF LPS-INDUCED TNF-α-PRODUCTION ([3]; compound alone, 10 μM): 33.30%; % INHIBITION OF LPS-INDUCED TNF-α-PRODUCTION ([3]; compound alone, 20 μM): 83.60%; % INHIBITION OF LPS-INDUCED IL-1 PRODUCTION ([4]; compound alone, 10 μM): 70.10%; % INHIBITION OF LPS-INDUCED IL-1 PRODUCTION ([4]; compound alone, 20 μM): 84.00%; % INHIBITON OF TNF-α-INDUCED NF-κB ACTIVATION ([5]; 10 μM): 14.43%; % INHIBITON OF TNF-α-INDUCED NF-κB ACTIVATION ([5]; 20 μM): 59.67%
CCCCCc1cc(O)c(C/C=C(\C)CCC=C(C)C)c(O)c1 [CBG, Cannabigerol] | induced cytotoxicity | induced cytotoxicity | significant concentration-dependent decrease | significant concentration-dependent decrease | induced cytotoxicity | 24.9% | 59.8% | 32.6% | 0% | 18.3% | inhibition at 10 µM ([4]; Homo sapiens, Monocyte, read-out: % INHIBITION OF LPS-INDUCED IL-1 PRODUCTION): 9.4%
COc1cc(-c2cc(=O)c3c(O)c(C/C=C(\C)CCC=C(C)C)c(O)cc3o2)ccc1O [Canflavin A] |  |  |  |  |  | 0% | 0% | 0% | 16.6% | 38.8% | inhibition at 10 µM ([4]; Homo sapiens, Monocyte, compound alone, 10 μM, read-out: % INHIBITION OF LPS-INDUCED IL-1 PRODUCTION): 0%; release of prostaglandin E2 [7]: can inhibit
COC1=CC(=O)c2ccc3cc(OC)cc(O)c3c2C1=O [Denbinobin] |  |  | significant concentration-dependent decrease | significant concentration-dependent decrease |  |  |  |  |  |  | anti-tumoral activity [8]: anti-tumoral activities; inhibition at 1 µM ([3]; Homo sapiens, Monocyte, compound alone, 1 μM, read-out: % INHIBITION OF LPS-INDUCED TNF-α-PRODUCTION): 32%; inhibition at 2 µM ([3]; Homo sapiens, Monocyte, compound alone, 2 μM, read-out: % INHIBITION OF LPS-INDUCED TNF-α-PRODUCTION): 64%; inhibition at 1 µM ([4]; Homo sapiens, Monocyte, compound alone, 1 μM, read-out: % INHIBITION OF LPS-INDUCED IL-1 PRODUCTION): 37%; % INHIBITION OF LPS-INDUCED IL-1 PRODUCTION ([4]; compound alone, 2 μM00): 70.00%; inhibition at 1 µM [5, 16]: 44.9%; inhibition at 2 µM [5, 16]: 93.1%; anti-tumoral activity [9]: anti-tumoral activities; HIV-1 replication in T cells [10]: can inhibit
CCCCCc1cc(O)c2c(c1)OC(C)(C)[C@@H]1CCC(C)=C[C@@H]21 [THC, Δ-9-Tetrahydrocannabinoid] |  |  |  |  |  |  |  |  |  |  | gastrointestinal motility [11]: inhibits; intestinal inflammation [12]: reduces
